The supplement of paper PMC10307832

Assays:
Experiment in all cases: relative viability (nuclei count vs DMSO), 5 days (fraction); higher = more cells survive
NCI-H2228 = system: NCI-H2228
How it was run: (§1)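 Values are medians from duplicate plates. Each reflects relative viability, defined as the nuclei count of treated wells over that of vehicle wells. Lung cancer cell lines in 1536-well plates were pin-tool dosed one day after seeding with one drug alone or with a fixed anchor-drug dose plus five library-drug doses (not always all listed) in √10 steps, then fixed, stained and imaged at 4× after 5 days.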

NCI-H1755 = system: NCI-H1755
How it was run: as §1

LK-2 = system: LK-2
How it was run: as §1

UMC-11 = system: UMC-11
How it was run: as §1

ABC-1 = system: ABC-1
How it was run: as §1

NCI-H838 = system: NCI-H838
How it was run: as §1

NCI-H1355 = system: NCI-H1355
How it was run: as §1

NCI-H1666 = system: NCI-H1666
How it was run: as §1

NCI-H520 = system: NCI-H520
How it was run: as §1

HCC-366 = system: HCC-366
How it was run: as §1

NCI-H358 = system: NCI-H358
How it was run: as §1

NCI-H1650 = system: NCI-H1650
How it was run: as §1

201T = system: 201T
How it was run: as §1

NCI-H727 = system: NCI-H727
How it was run: as §1

HCC-44 = system: HCC-44
How it was run: as §1

NCI-H2347 = system: NCI-H2347
How it was run: as §1

HCC-78 = system: HCC-78
How it was run: as §1

SW 1573 = system: SW 1573
How it was run: as §1

NCI-H1734 = system: NCI-H1734
How it was run: as §1

BEN = system: BEN
How it was run: as §1

NCI-H2009 = system: NCI-H2009
How it was run: as §1

NCI-H2405 = system: NCI-H2405
How it was run: as §1

LOU-NH91 = system: LOU-NH91
How it was run: as §1

With Cc1cnc(-c2cnc(NCCNc3ccc(C#N)cn3)nc2-c2ccc(Cl)cc2Cl)[nH]1 + N=C(N)NC(=N)NCCc1ccccc1 [Phenformin] (partner 250 µM) the relative viability (NCI-H2228; first compound 0.08 µM) was 0.256, the relative viability (NCI-H2228; first compound 0.253 µM) was 0.357 and the relative viability (NCI-H2228; first compound 0.8 µM) was 0.366. It also gave a relative viability (NCI-H2228; first compound 2.53 µM) of 0.228, a relative viability (NCI-H1755; first compound 0.08 µM) of 0.633 and a relative viability (NCI-H1755; first compound 0.253 µM) of 0.604. The relative viability (NCI-H1755; first compound 0.8 µM) was 0.634, the relative viability (NCI-H1755; first compound 2.53 µM) was 0.572 and the relative viability (LK-2; first compound 0.08 µM) was 0.549. The relative viability (LK-2; first compound 0.253 µM) was 0.501, the relative viability (LK-2; first compound 0.8 µM) was 0.379 and the relative viability (LK-2; first compound 2.53 µM) was 0.641. The relative viability (UMC-11; first compound 0.08 µM) was 0.339, the relative viability (UMC-11; first compound 0.253 µM) was 0.315 and the relative viability (UMC-11; first compound 0.8 µM) was 0.352. It also gave a relative viability (UMC-11; first compound 2.53 µM) of 0.376, a relative viability (ABC-1; first compound 0.08 µM) of 0.259 and a relative viability (ABC-1; first compound 0.253 µM) of 0.246. It also gave a relative viability (ABC-1; first compound 0.8 µM) of 0.271, a relative viability (ABC-1; first compound 2.53 µM) of 0.195 and a relative viability (NCI-H838; first compound 0.08 µM) of 0.634. It also gave a relative viability (NCI-H838; first compound 0.253 µM) of 0.601, a relative viability (NCI-H838; first compound 0.8 µM) of 0.594 and a relative viability (NCI-H838; first compound 2.53 µM) of 0.709. For the same molecule, the relative viability (NCI-H1355; first compound 0.08 µM) was 0.476, the relative viability (NCI-H1355; first compound 0.253 µM) was 0.45 and the relative viability (NCI-H1355; first compound 0.8 µM) was 0.479. The relative viability (NCI-H1355; first compound 2.53 µM) was 0.446, the relative viability (NCI-H1666; first compound 0.08 µM) was 0.548 and the relative viability (NCI-H1666; first compound 0.253 µM) was 0.563. For the same molecule, the relative viability (NCI-H1666; first compound 0.8 µM) was 0.553, the relative viability (NCI-H1666; first compound 2.53 µM) was 0.572 and the relative viability (NCI-H520; first compound 0.08 µM) was 0.861. It also gave a relative viability (NCI-H520; first compound 0.253 µM) of 0.628, a relative viability (NCI-H520; first compound 0.8 µM) of 0.542 and a relative viability (NCI-H520; first compound 2.53 µM) of 0.641. The relative viability (HCC-366; first compound 0.08 µM) was 0.606, the relative viability (HCC-366; first compound 0.253 µM) was 0.455 and the relative viability (HCC-366; first compound 0.8 µM) was 0.557. For the same molecule, the relative viability (HCC-366; first compound 2.53 µM) was 0.507, the relative viability (NCI-H358; first compound 0.08 µM) was 0.34 and the relative viability (NCI-H358; first compound 0.253 µM) was 0.307. For the same molecule, the relative viability (NCI-H358; first compound 0.8 µM) was 0.336, the relative viability (NCI-H358; first compound 2.53 µM) was 0.299 and the relative viability (NCI-H1650; first compound 0.08 µM) was 0.497. The relative viability (NCI-H1650; first compound 0.253 µM) was 0.428, the relative viability (NCI-H1650; first compound 0.8 µM) was 0.384 and the relative viability (NCI-H1650; first compound 2.53 µM) was 0.276. The relative viability (201T; first compound 0.08 µM) was 0.469, the relative viability (201T; first compound 0.8 µM) was 0.397 and the relative viability (201T; first compound 2.53 µM) was 0.473. For the same molecule, the relative viability (NCI-H727; first compound 0.08 µM) was 0.488, the relative viability (NCI-H727; first compound 0.253 µM) was 0.478 and the relative viability (NCI-H727; first compound 0.8 µM) was 0.478. The relative viability (NCI-H727; first compound 2.53 µM) was 0.597, the relative viability (HCC-44; first compound 0.08 µM) was 0.209 and the relative viability (HCC-44; first compound 0.253 µM) was 0.192. For the same molecule, the relative viability (HCC-44; first compound 0.8 µM) was 0.182, the relative viability (HCC-44; first compound 2.53 µM) was 0.139 and the relative viability (NCI-H2347; first compound 0.08 µM) was 0.425. It also gave a relative viability (NCI-H2347; first compound 0.253 µM) of 0.5, a relative viability (NCI-H2347; first compound 0.8 µM) of 0.397 and a relative viability (NCI-H2347; first compound 2.53 µM) of 0.477. For the same molecule, the relative viability (HCC-78; first compound 0.08 µM) was 0.804, the relative viability (HCC-78; first compound 0.253 µM) was 0.675 and the relative viability (HCC-78; first compound 0.8 µM) was 0.636. It also gave a relative viability (HCC-78; first compound 2.53 µM) of 0.645, a relative viability (SW 1573; first compound 0.08 µM) of 0.515 and a relative viability (SW 1573; first compound 0.253 µM) of 0.334. The relative viability (SW 1573; first compound 0.8 µM) was 0.436, the relative viability (SW 1573; first compound 2.53 µM) was 0.3 and the relative viability (NCI-H1734; first compound 0.08 µM) was 0.49. The relative viability (NCI-H1734; first compound 0.253 µM) was 0.379, the relative viability (NCI-H1734; first compound 0.8 µM) was 0.391 and the relative viability (NCI-H1734; first compound 2.53 µM) was 0.355. It also gave a relative viability (BEN; first compound 0.08 µM) of 0.232, a relative viability (BEN; first compound 0.253 µM) of 0.269 and a relative viability (BEN; first compound 0.8 µM) of 0.252. For the same molecule, the relative viability (BEN; first compound 2.53 µM) was 0.261, the relative viability (NCI-H2009; first compound 0.08 µM) was 0.499 and the relative viability (NCI-H2009; first compound 0.253 µM) was 0.442. It also gave a relative viability (NCI-H2009; first compound 0.8 µM) of 0.489, a relative viability (NCI-H2009; first compound 2.53 µM) of 0.271 and a relative viability (NCI-H2405; first compound 0.08 µM) of 0.385. For the same molecule, the relative viability (NCI-H2405; first compound 0.253 µM) was 0.418, the relative viability (NCI-H2405; first compound 0.8 µM) was 0.398 and the relative viability (NCI-H2405; first compound 2.53 µM) was 0.358. It also gave a relative viability (LOU-NH91; first compound 0.08 µM) of 0.769, a relative viability (LOU-NH91; first compound 0.253 µM) of 0.674 and a relative viability (LOU-NH91; first compound 0.8 µM) of 0.756. The relative viability (LOU-NH91; first compound 2.53 µM) was 0.567.
